Measurements published in patent publication US20080319181A1, “Method of Making an Artificial Nuclease for Anti-viral, Anti-bacterial Applications” (The Government of the United States of America, as …, priority 2004, published 2008).

Legend:
Assay type in all cases: biochemical
luciferase mRNA = test: Hydrolysis of RNA, denaturing agarose gel electrophoresis; conditions: 1 to 5 mM; 24 h at 25° C. in HBS (FIG. 5)
Experimental: The direct interaction of Co(III)-cycmmb with luciferase mRNA was analyzed by denaturing agarose gel electrophoresis. mRNA template (2 μg at a final concentration of 0.4 mg/mL) was incubated with varying concentrations (1 to 5 mM) of activated Co(III)-cycmmb for 24 h at 25° C. in 5 μL of HBS. Following the incubation, the reactions were analyzed by electrophoresis on a 2% denaturing agarose gel run for 4 h at 40 V. The gel was stained with RiboGreen (Molecular Probes), visualized by UV illumination, and images were quantified using Scion Image using the control incubation (no Co(III)-cycmmb) as a standard (see FIG. 5).

[1] = Hydrolysis of BNPP by cobalt cyclen complexes (2nd order rate constants); conditions: 50° C., activation using sodium hydroxide
Experimental: The hydrolysis of BNPP by both Cocyc and 2 at 50° C., following activation using sodium hydroxide, has been measured (see Table 1). The second-order rate constants at pH 8.2 for both cyclen and 2 were similar at 14 and 12 M^−1 min^−1, respectively. The rate increased at pH 7.3 to a value of 19 M^−1 min^−1 for cyclen as compared to the published value of 2.8 M^−1 min^−1 at pH 7 (Chin, J.; Banaszczyk, M.; Jubian, V.; Zou, X. J. Am. Chem. Soc. 1989, 111, 186-190, the entire contents of which is incorporated herein by reference). The difference between the published value and ours can be attributed to different experimental conditions, such as buffer. pH, and the ratio of catalyst to substrate.
The much lower hydrolysis rate shown at pH 7.3 for Cocycmba is surprising. In order to determine whether the differences observed were mainly due to the carboxylic acid or to the presence of the benzene ring, the kinetics of 3 were measured at pH 7.3 and found to be 14 M^−1 min^−1, which is much closer to the Cocyc rate. Methylation of the benzoic acid takes away both the negative charge and an ability to effectively hydrogen bond. Therefore the results imply that the behavior of 2 can be mostly ascribed to the presence of the additional charge and the potential for hydrogen bonding. For example, the acid dissociation constants of cyclen of 5.6 and 8.0 mean that between pH 8.2 and 7.3 complexes 1 and 2 should convert from predominantly the dihydroxo to the aquo-hydroxo form (see FIG. 2). Since the benzoic acid is in the benzoate form (pKa 4.2), the increasing net positive charge at pH 7.3 of the coordination site may allow the benzoate to approach closer to Co(III) and interfere with the hydrolysis of BNPP.

pBluescript plasmid DNA = test: Hydrolysis (nicking) of plasmid DNA, agarose gel; conditions: pH 7; 5 mM cobalt complex; 0.1M MOPS; 37° C., approximately 16 hours; NIH Image
Experimental: DNA was digested with cocycmba and cocycmmb at three pH conditions (FIG. 3). Hydrolysis of the phosophodiester bonds of the double stranded (ds) plasmid DNA should lead to a conversion from the covalently closed supercoiled form to the nicked form of the plasmid. […] Plasmid DNA digested with a nicking enzyme (lane 1 FIG. 3) confirms that the slower moving band observed in digests with the cobalt catalysts is the nicked form of the plasmid.
Digests run overnight at 37° C. for approximately 16 hours on a 1.5% agarose gel. Controls with no cobalt catalyst were always run in parallel. b) 5 mM cocycmmb and 1.19 μg (0.168 mM bp) pBluescript plasmid DNA in 0.1M MOPS buffer at pH 7, 8, and 10 run under identical conditions. 1=Nickase+DNA, 2=DNA. 3=Cobalt complex+DNA at pH 7.4=pH 7 control, 5=Cobalt complex+DNA at pH 8, 6=pH 8 control, 7=Cobalt complex+DNA at pH 10, 8=pH 10 control Nickase reactions were performed at pH 7 using a 4 hour, 37° C. incubation of 1.18 μg pBluescript plasmid DNA.

Luciferase control-RNA = test: Western blot analysis of effect on protein translation (Rabbit Reticulocyte Lysate)
Experimental: Luciferase control-RNA (at a final concentration of 0.4 ug/mL) was incubated with increasing concentrations of Cocycmmb for 24 h in 1× HBS buffer (pH 7.4) for 24 h. After the incubation period, the RNA template was translated into luciferase protein using the Rabbit Reticulocyte Lysate translation system (Promega) according to the manufacturer's instructions. After translation, the reaction was analyzed by reducing SDS-PAGE and western blotting to monitor the presence of the 60 kDa luciferase protein product. An aliquot (3 uL) of the translation reaction was run on a 10% NuPAGE Bis-Tris polyacrylamide gel under reducing conditions and transferred to a solid support membrane (PVDF). The membrane was blocked for 1 h in TBS-T (TBS containing 0.05% Tween) and subsequently incubated for 1 h with a 1:2500 dilution of a streptavidin-alkaline phosphatase conjugate. Detection was achieved by exposing the membrane to Western Blue substrate for alkaline phosphatase.
RNA incubations were done as described above except that the Cocycmmb concentration was held constant at 5 mM (and, more recently, down to 0.05 mM) and incubated for varying amounts of time that spanned 24 h. SDS-PAGE and Western blotting were done as described above.

Compound | hydrolysis of RNA (luciferase mRNA) | 2nd Order Rate Constants, hydrolysis of BNPP ([1]; pH 7.3) | 2nd Order Rate Constants, hydrolysis of BNPP ([1]; pH 8.2) | nicked product (pBluescript plasmid DNA) | inhibition of protein production (Luciferase control-RNA; 0.25 mM, 10 minutes incubation time) | luciferase protein band in the Western blot (Luciferase control-RNA; as a function of Cocycmmb concentration and of time of contact with the RNA (FIG. 4))
COC(=O)c1ccc(CN2CCNCCNCCNCC2)cc1.COS(=O)(=O)[O-].[Cl-].[Cl-].[Co+3] [Cocycmmb, Dichloro{methyl 4-[(1,4,7,10-tetraazacyclododec-1-yl)methyl]-benzoate}cobalt (III) methylsulfate] | hydrolyze RNA | 0.233 M⁻¹ s⁻¹ | 0.183 M⁻¹ s⁻¹ | 43% | significant inhibition of protein production | absence of the protein band
dichloro(4-[1,4,7,10-tetraazacyclotetradec-1-yl]methylbennzoic acid)cobalt(III) chloride [Cocycmba] | – | 0.045 M⁻¹ s⁻¹ | 0.2 M⁻¹ s⁻¹ | 25% | – | –
